The record followed here is patent publication EP0076669A1, “Novel 3-phenyl-1-indanamines, pharmaceutical compositions and methods of preparation” (KEFALAS A/S, priority 1981, dated 1983).

Where a name gives a salt, the structure may show the parent alone. Where only a bound is given, the exact number is not on record here.

The subject of assay [1] is tetrabenazine induced ptosis. The assay is described as follows: Tetrabenazine ptosis antagonism. It counts as in vivo. Particulars: Mus musculus, ip, 0.5 h; i.p., mice; tetrabenazine 40 mg/kg i.p. 30 min after test substance. The procedure: For insoluble substances the doses 0, 1/8, 1/32 and 1/128 of "i.^p. LD50" are used. 3 mice are used for each dose level. Thirty minutes after administration of test substance, tetrabenazine, 40 mg/kg, is injected i.p. Ptosis is evaluated 30 minutes after administration of tetrabenazine, the following rating scale being used: 0 = normal eyes, 1=1/4 closed eyes, 2 = 1/2 closed eyes, 3 = 3/4 closed eyes and 4 = completely closed eyes. Ptosis is evaluated 30 seconds after tilting the cage 3 times. The tilting is carried out in such a way that the animals slide along the floor of the cage.
The results are recorded as % inhibition of ptotic score calculated on the basis of the score of the control group. If ptotic score for the control group is < 10 the test is rejected and another is performed. The registration can also be done as an on line procedure.

In the next assay the test system is potentiation of 5-HTP. The assay is described as follows: 5-HTP potentiation (5-HTP syndrome). Particulars: Mus musculus, ip, 0.5 h; i.p., mice; 5-HTP 100 mg/kg i.v. 30 min after test substance; read-out: 5-HTP potentation,ED50. The assay is classed as in vivo. Here is the method:
The test substance is given i.p. or p.o. in the doses 10, 10, 2.5, 0.63 and 0 mg/kg. Three mice are used for each dose level. One of the groups on the highest dose is used as control of the compounds own effect. […] Thirty minutes after administration of test substance, 5-HTP, 100 mg/kg i.v. is given (injection time 5-10 sec.). After this 5-HTP dose the animals remain unaffected. If the animals have been pretreated with a substance, which inhibits the re-uptake of 5-HT, a 5-HTP syndrome will occur. This is characterized by the following symptoms: 1) excitation, 2) tremor, and 3) abduction of the hind limbs.
After the administration of 5-HTP the animals are observed for 15 minutes and each animal is given one point for each symptom present. Thus, the maximal score for a group consisting of 3 mice is 9.
The results are stated as fractions: 0/9, 1/9, 2/9 ..... 8/9, 9/9, where 0, 1, 2 ..... 8, 9 are the number of points per group after the dose in question.

As to `CN(C)[C@@H]1C[C@@H](c2ccc(F)cc2)c2ccc(F)cc21` (relative stereo) [Lu 13-114-c], the ED50 – broadly, the dose at which the effect has come halfway, by size or by number of responders – is 28 µmol/kg in assay [1] and above 130 µmol/kg with potentiation of 5-HTP.
For `CN(C)[C@@H]1C[C@@H](c2ccc(F)cc2)c2ccc(C(F)(F)F)cc21` (relative stereo) [Lu 18-047-c], in assay [1], the 50% effect level (ED50) was put at a dose of 166 µmol/kg.
Regarding `CN(C)[C@@H]1C[C@@H](c2ccc(Cl)c(Cl)c2)c2ccccc21` (relative stereo) [Lu 18-118], the ED50 is 83 µmol/kg in assay [1] and 5 µmol/kg in the assay on potentiation of 5-HTP.
In the same order, the values of `CN(C)[C@@H]1C[C@@H](c2ccc(Cl)cc2Cl)c2ccccc21` (relative stereo) [Lu 18-136-c] are 23 µmol/kg and 19 µmol/kg.
In the same order, the values of `CCN(CC)[C@@H]1C[C@@H](c2ccc(Cl)c(Cl)c2)c2ccccc21` (relative stereo) [Lu 18-187-c] are 52 µmol/kg and 19 µmol/kg.
In the case of `CN[C@@H]1C[C@@H](c2ccc(Cl)c(Cl)c2)c2ccccc21` (relative stereo) [Lu 19-005-c, trans-N-methyl-3-(3',4'-dichlorophenyl)-I-indanamine], the ED50 in the assay on potentiation of 5-HTP was determined as 6.7 µmol/kg.
For the compound `CN[C@@H]1C[C@H](c2ccc(Cl)c(Cl)c2)c2ccccc21` (relative stereo) [Lu 19-006-c, cis-N-methyl-3-(3',4'-dichlorophenyl)-1-indanamine], the ED50 in assay [1] was 5.8 µmol/kg.
As to `CN(C)[C@@H]1C[C@@H](c2ccc(F)cc2)c2ccccc21` (relative stereo) [Lu 19-007-c], the ED50 was 7.8 µmol/kg in assay [1] and 45 µmol/kg in the assay with potentiation of 5-HTP.
For `CN(C)[C@@H]1C[C@@H](c2ccccc2)c2ccccc21` (relative stereo) [Lu 19-026-c, reference compound], the ED50 was 17 µmol/kg in assay [1] and above 35 µmol/kg in the assay on potentiation of 5-HTP.
In the same order, the values of `CCN[C@@H]1C[C@@H](c2ccc(Cl)c(Cl)c2)c2ccccc21` (relative stereo) [Lu 19-040-c] are above 7 µmol/kg and 26 µmol/kg.
In the same order, the values of `CCCN(CCC)[C@@H]1C[C@@H](c2ccc(Cl)c(Cl)c2)c2ccccc21` (relative stereo) [Lu 19-042-c] are above 25 µmol/kg and above 100 µmol/kg.
In the same order, the values of `CCCN(CCC)[C@@H]1C[C@H](c2ccc(Cl)c(Cl)c2)c2ccccc21` (relative stereo) [Lu 19-043-c] are above 100 µmol/kg and above 100 µmol/kg.
Take `CN(C)[C@@H]1C[C@@H](c2ccc(Br)cc2)c2ccccc21` (relative stereo) [Lu 19-056]: the ED50 in assay [1] was 10 µmol/kg; in the assay on potentiation of 5-HTP, 8 µmol/kg.
Taken in the same sequence, the figures for `CN(C)[C@@H]1C[C@H](c2ccc(Br)cc2)c2ccccc21` (relative stereo) [Lu 19-057] were 3.9 µmol/kg and 12 µmol/kg.
In the same order, the values of `CN(C)[C@@H]1C[C@@H](c2ccc(C#N)cc2)c2ccc(F)cc21` (relative stereo) [Lu 19-070-c] are 45 µmol/kg and 25 µmol/kg.
In the same order, the values of `Clc1ccc([C@@H]2C[C@@H](NCc3ccccc3)c3ccccc32)cc1Cl` (relative stereo) [Lu 19-071-c] are above 25 µmol/kg and above 25 µmol/kg.
On to `OCCN[C@@H]1C[C@@H](c2ccc(Cl)c(Cl)c2)c2ccccc21` (relative stereo) [Lu 19-074-c], for which the results for the ED50 (in assay [1]; with potentiation of 5-HTP) were 75 µmol/kg and 270 µmol/kg, respectively.
Taken in the same sequence, the figures for `Clc1ccc([C@@H]2C[C@@H](NCCc3ccccc3)c3ccccc32)cc1Cl` (relative stereo) [Lu 19-078-c] were 33 µmol/kg and 142 µmol/kg.
Regarding `OCCN(CCO)[C@@H]1C[C@@H](c2ccc(Cl)c(Cl)c2)c2ccccc21` (relative stereo) [Lu 19-082-c], the ED50 in assay [1] was 104 µmol/kg; in the assay with potentiation of 5-HTP it was above 99 µmol/kg.
Taken in the same sequence, the figures for `Clc1ccc([C@@H]2C[C@@H](NCC=Cc3ccccc3)c3ccccc32)cc1Cl` (relative stereo) [Lu 19-083-o] were above 83 µmol/kg and above 83 µmol/kg.
For the compound `CN[C@@H]1C[C@@H](c2ccc(F)c(Cl)c2)c2ccccc21` (relative stereo) [Lu 19-085-c, trans-N-methyl-3-(3'-chloro-4'-fluorophenyl)-I-indanamine hydrochloride], the results for the ED50 (in assay [1]; with potentiation of 5-HTP) were 51 µmol/kg and 47 µmol/kg, respectively.
Turning to `CN[C@@H]1C[C@@H](c2ccc(F)cc2)c2ccc(C)cc21` (relative stereo) [Lu 19-092-c], the median effective dose (ED50) in assay [1] was 34 µmol/kg; with potentiation of 5-HTP it was 63 µmol/kg.
Taken in the same sequence, the figures for `CN[C@@H]1C[C@H](c2ccccc2)c2ccccc21` (relative stereo) [Lu 19-094] were above 154 µmol/kg and 211 µmol/kg.
Taken in the same sequence, the figures for `CN(C)[C@@H]1C[C@@H](c2ccc(F)c(F)c2)c2ccccc21` (relative stereo) [Lu 19-095-c] were 7.1 µmol/kg and 73 µmol/kg.
In the case of `CN[C@@H]1C[C@@H](c2ccc(F)cc2)c2ccc(F)cc21` (relative stereo) [Lu 19-097-c], the ED50 in the assay on potentiation of 5-HTP stood at 94 µmol/kg.
As to `CN[C@@H]1C[C@@H](c2ccc(F)c(F)c2)c2ccccc21` (relative stereo) [Lu 19-098-c], the median effective dose (ED50) in the assay with potentiation of 5-HTP was found to be 22 µmol/kg.
`CN[C@@H]1C[C@@H](c2ccc(Cl)cc2Cl)c2ccccc21` (relative stereo) [Lu 19-099-c]: the ED50 in assay [1] was 19 µmol/kg; in the assay with potentiation of 5-HTP it was 67 µmol/kg.
Turning to `CN(C)[C@@H]1C[C@@H](c2ccc(F)c(Cl)c2)c2ccccc21` (relative stereo) [Lu 19-100-c, trans N,N-dimethyl-3-(3-chloro-4-fluorophenyi)-1-indanamine], the ED50 in assay [1] worked out at 4 µmol/kg; in the assay with potentiation of 5-HTP, 37 µmol/kg.
In the same order, the values of `CN(C)[C@@H]1C[C@H](c2ccc(F)c(Cl)c2)c2ccccc21` (relative stereo) [Lu 19-101-c, cis-N,N-dimethyl-3-(3-chloro-4-fluorophenyl)-1-indanamine, hydrochloride] are 24 µmol/kg and 51 µmol/kg.
For the compound `CN[C@@H]1C[C@@H](c2ccc(Br)cc2)c2ccccc21` (relative stereo) [Lu 19-102-c], the ED50 in assay [1] was 4 µmol/kg; with potentiation of 5-HTP it was 8.8 µmol/kg.
Taken in the same sequence, the figures for `CN[C@@H]1C[C@H](c2ccc(Br)cc2)c2ccccc21` (relative stereo) [Lu 19-103-c] were 29 µmol/kg and 6.6 µmol/kg.
Taken in the same sequence, the figures for `CN[C@@H]1C[C@H](c2ccc(F)c(F)c2)c2ccccc21` (relative stereo) [Lu 19-104-c, cis-N-methyl-3-(3,4-difluorophenyl)-1-indanamine] were 23 µmol/kg and 63 µmol/kg.
In the same order, the values of `CCN(C)[C@@H]1C[C@@H](c2ccc(F)c(Cl)c2)c2ccccc21` (relative stereo) [Lu 19-105-o, trans N-ethyl-N-methyl-N-3-(3'-chloro-4'-fluorophenyl)-indanamine] are 12 µmol/kg and 95 µmol/kg.
Regarding `CN[C@@H]1C[C@H](c2ccc(F)cc2)c2ccccc21` (relative stereo) [Lu 19-108-c, cis N-methyl-3-(4'-fluorophenyl)-1-indanamine, hydrochloride], the values for the ED50 (in assay [1]; with potentiation of 5-HTP) were 79 µmol/kg and 72 µmol/kg, respectively.
Taken in the same sequence, the figures for `CN[C@@H]1C[C@@H](c2ccc(F)cc2)c2ccccc21` (relative stereo) [Lu 19-109-c] were 6.3 µmol/kg and above 36 µmol/kg.
In the same order, the values of `CN[C@@H]1C[C@H](c2cccc(Cl)c2)c2ccccc21` (relative stereo) [Lu 19-110-c] are 142 µmol/kg and 124 µmol/kg.
Taken in the same sequence, the figures for `CN[C@@H]1C[C@@H](c2cccc(Cl)c2)c2ccccc21` (relative stereo) [Lu 19-111-c] were 45 µmol/kg and 92 µmol/kg.
Consider `CN[C@@H]1C[C@H](c2ccc(Cl)cc2Cl)c2ccccc21` (relative stereo) [Lu 19-113-c], for which the ED50 in assay [1] came out at 98 µmol/kg; with potentiation of 5-HTP, 71 µmol/kg.
For the compound `CN(C)[C@@H]1C[C@@H](c2cccc(Cl)c2)c2ccccc21` (relative stereo) [Lu 19-115-c], the ED50 in assay [1] came out at 10 µmol/kg; in the assay on potentiation of 5-HTP, 43 µmol/kg.
In the same order, the values of `CN(C)[C@@H]1C[C@H](c2cccc(Cl)c2)c2ccccc21` (relative stereo) [Lu 19-116-c] are 85 µmol/kg and 78 µmol/kg.
In the same order, the values of `CN[C@@H]1C[C@@H](c2ccc(Cl)cc2)c2ccccc21` (relative stereo) [Lu 19-119] are above 155 µmol/kg and 34 µmol/kg.
With `CN[C@@H]1C[C@@H](c2ccc(Cl)c(Cl)c2)c2ccccc21` (single isomer, unassigned) [Lu 20-042-c, (+) trans N-methyl-3-(3,4-dichlorophenyl)-1-indanamine, hydrochloride], the median effective dose (ED50) in assay [1] came to 7.6 µmol/kg.
With `CNC1CC(c2ccc(Cl)c(Cl)c2)c2ccccc21` (single isomer, unassigned; (-)) [Lu 20-043-c, (-) trans N-methyl-3-(3,4-dichlorophenyl)-1-indanamine, hydrochloride], in the assay on potentiation of 5-HTP, the ED50 turned out to be 16 µmol/kg.
